Read-outs that look alike come from different tables or passages of the source.
Experiments:
[1] = test system: HIV-1 long terminal repeat (LTR)-driven luciferase reporter gene in FlipIn.FM HEK293 cells; test: cells; format: cell-based
Method: FIG. 44. […] The FlipIn.FM model of HIV-1 latency was treated with JQ1 (+) and DP#14 (Compound 7) alone at 10 μM and in combination, and the HIV-1 gene expression measured 48 hrs post treatment. Error bars represent standard deviation of n=3 experiments. OPTI represents media alone, without DP#14.
FIG. 46. […] The FlipIn.FM model of HIV-1 latency was treated with PFI-1 and DP#14 alone at 10 μM and in combination, and the HIV-1 gene expression measured 48 hrs post treatment. Error bars represent standard deviation of n=3 experiments. OPTI represents media alone, without DP#14.
Explicitly, HEK293 derived FlipIn-FM and FlipIn-RV dual reporter cells each include a single stable HIV-1 long terminal repeat (LTR)-driven luciferase reporter genes, with a second complimentary non-HIV (off-target) luciferase reporter. These cell lines model post integration latency and read-through transcription by expressing a low level of HIV-1 Tat protein via a native Internal Ribosome Entry Site (IRES) found within Tat, from a chimeric cellular-tat gene cassette. FlipIn-FM and FlipIn-RV clones were chosen for low basal levels of LTR activity and high responsiveness to Tat as well as many Latency Reversing Agents (LRAs).
The dual reporter cell lines contain three stably integrated constructs that together allow for detection of novel LRAs, capable of potent and specific HIV reactivation. The FlipIn.FM line contains a proviral LTR-driven nef/CBR reporter fusion gene, allowing for detection of viral gene expression. A second CMV-driven CBG luciferase reporter allows for detection of off target drug effects, including non-specific activation and drug toxicity. The third construct contains the first coding exon of HIV-1 tat, within human Growth Hormone (hGH) as a chimeric gene, expressing HIV-1 Tat protein from an IRES mechanism that underlies the tat exon. This construct models read-through transcription and the low level of Tat protein expression that occurs during post integration latency. The counter screening reverse cell line, FlipIn.RV, contains the same three components with the Click Beetle Luciferase genes in the opposite orientation (LTR-CBG and CMV-CBR) for counter screening.
Compounds were evaluated in an 11-point titration using normal CMV-CBG/LTR-CBR reporter cell line and an 11 point reverse CMV-CBR/LTR-CBG reporter cell line.
The FlipIn cell lines were therefore designed with a dual purpose, to detect novel compounds that reactivate HIV-1 and to also screen out compounds that behaved in a largely non-specific manner. To achieve the latter, the cell lines contain an “off target” reporter gene construct, driven by the unrelated CMV-IE promoter, that allows for the detection of drug mediated off target effects including global gene activation as well as possible toxicity.
The HIV-LTR driven latent reporter gene identifies the HIV-specific activation, and the term “global reporter” is interchangeable with “off target reporter” and refers to the unrelated CMV-IE promoter driven reporter gene, which is used as a surrogate for global gene activation. […] The highest concentration tested here was 40 μM.

[2] = test system: latent HIV in resting memory CD4+ T cells isolated by leukapheresis from HIV+ donors on antiretroviral therapy; format: cell-based, HIV-1; details: 72 hrs
Source text: FIG. 41a. […] Resting memory CD4+ T cells isolated by leukapheresis from HIV+ donors on antiretroviral therapy were reactivated for 72 hrs using known LRAs including vorinostat (Vor) also known as suberanilohydroxamic acid, another hydroxamic acid panobinostat (Pan), and the depsipeptide Romidepsin (Rom) that are all HDACi, together with JQ1 (+) which is a thienotriazolodiazepine known to inhibit the BET family of bromodomain proteins including BRD2, BRD3, and BRD4, and compared with compounds according to the present invention DP#6 (Compound 41), DP#14 (Compound 7), and DP#16 (Compound 64).
FIG. 41c. […] Resting memory CD4+ T cells isolated by leukapheresis from HIV+ donors on antiretroviral therapy were reactivated for 72 hrs using known (vorinostat, Vor; panobinostat, Pan; romidepsin, Rom; and JQ1 (+)) and compounds according to the present invention (DP#6 (Compound 41), DP#14 (Compound 7), and DP#16 (Compound 64)).
FIG. 42c. […] Resting memory CD4+ T cells isolated by leukapheresis from HIV+ donors on antiretroviral therapy were reactivated for 72 hrs using known (JQ1 (+)) and compounds according to the present invention (DP#14 (Compound 7)) alone and in combination, and HIV-1 RNA detected through qPCR.
Total peripheral blood mononuclear cells (PBMC) were stored frozen in liquid nitrogen and prior to use, vials of frozen cells (0.5×10^8 PBMCs/vial or 1×10^8 PBMCs/vial) were quick thawed in a 42° C. water bath. Cells were promptly transferred to a 15 mL tube with 5 mL FBS dropwise then, then 6 mL of RF10 was added. Cells were pelleted at 300 g for 10 min at room temperature. Following aspiration, the cells were resuspended in RF10, pooled into a 50 mL tube which was topped up with RF10. PBMC were pelleted again at 300 g for 10 min at room temperature. Following aspiration, the cells were resuspended in PBS(−/−) and counted. CD4+ T cells were then isolated from 4×10^8 PBMCs that were pelleted and resuspended in PBS(−/−) at 1×10^7 cells/40 μL. 10 μL of CD4+ T cell Biotin-Antibody cocktail (Miltenyi Biotec) for every 1×10^7 cells was added and the mix refrigerated for 5 min. 30 μL of PBS(−/−) for every 1×10^7 cells was added, and 20 μL of the CD4+ T cell MicroBeads for every 1×10^7 cells was added and the mix refrigerated for 10 min. Unlabelled CD4+ T cells were then isolated by negative selection using magnetic separation. CD4+ T cells were then counted before being diluted to 4×10^6 cells/500 μL in RF10 for each condition and seeded into a 48 well plate.
Latent HIV was reactivated in the presence of the HIV integrase inhibitor Raltagravir (Ral) to prevent any further rounds of infection. Ral was made to [2 μM] in RF10+IL-2 (2 U/mL), and used to make 1 mL preparation of each drug up at [×2]. 500 μL of the [×2 Ral/IL-2/drug] was then added to the appropriate wells containing cells. Cells were transported to PC3 and incubated for 72 hrs.
Following reactivation, 800 μL of cell supernatant was transferred to labeled 1.5 mL screwcap tubes, pelletted at 800 g for 10 min then transferred to a second set of tubes and frozen for possible use at a later date. 800 μL of PBS(−/−) was added to each well to mix the cells and 50 μL of cells transferred to another set of tubes for live/dead staining and flow cytometry. Cells were pelleted at 400 g for 10 min, the media aspirated and cells resuspended in 100 μL of a [×1] APC-cy7 live/dead stain (Life technologies).

Question: For O=C(CCCOc1ccccc1)Nc1ncc(Br)s1 [Compound 7], which “fold change in HIV-1 gene expression over the unstimulated baseline” value ([1]; FlipIn.FM model, alone at 10 μM and in combination, 48 hrs post treatment) is on record?
Answer: The value was 4.2 fold.

Question: And the EC50 ([1]; Human immunodeficiency virus 1, HEK293, HIV-LTR driven latent reporter, 11-point, 2-fold dilution series, highest concentration 40 μM, read-out: Latent reporter Av EC50)?
Answer: Its EC50 is 1.64 µM.

Question: And the “induction of HIV-1 gene expression, % of the normalized value” ([2]; at 5 μM, normalized between unstimulated baseline and PMA as 100%)?
Answer: Its value is 24%.

Question: What about the “induction of HIV-1 gene expression, % of the normalized value” ([2]; normalized between unstimulated baseline and PMA positive control as 100%, concentration not given) of the same compound?
Answer: Its value is 24%.

— patent publication US20190330167A1, “ACTIVATORS OF HIV LATENCY” (priority 2016, published 2019)
